The target in assay [1] is T1, purified sickle cell hemoglobin (HbS) (Homo sapiens, UniProt P68871+P69905, E7V).
T1 construct: HbS was obtained from the blood of homozygous S/S patients; from tissue; host or cells: red blood cells of homozygous S/S patients
Description: Binding affinity to purified HbS by Surface Plasmon Resonance (SPR). To be noted: crosslinked biotinylated HbS, 1:1 binding model. The gist of the method: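 Patient-derived HbS, purified and crosslinked between beta subunits (Lys82-Lys82), biotinylated and captured on streptavidin sensor at 4000–5000 RU. Running buffer 100 mM potassium phosphate pH 7.5, 1 mM EDTA, 0.1 mg/mL BSA, 1% DMSO; 2 min association, ≥5 min dissociation, ≥4 concentrations; Kd from 1:1 model fit.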

The target in another assay is T2, HbS (Homo sapiens, UniProt P68871+P69905, E7V).
T2 construct: HbS was obtained from the blood of homozygous S/S patients; from tissue; host or cells: red blood cells of homozygous S/S patients
As to the kind of experiment: 'R'-'T' assay (conversion of oxy HbS to deoxy HbS under deoxygenating conditions). The assay is classed as biochemical. The following applies: 50% inhibition of HbS 'R'-'T' conversion; 3 uM HbS, <1% O2. The gist of the method: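 Oxy HbS diluted to 3 µM in 100 mM potassium phosphate pH 7.4, incubated 1 h at room temperature with compound, then held under <1% O2 for 2 h. Conversion followed by background-corrected 415/430 nm absorbance ratio at 0, 90 and 120 min; percent effect normalized to tucaresol, IC50 from concentration series.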

A further assay has as its target T3, Hb in human whole blood (Homo sapiens, UniProt P68871+P69905).
T3 construct: measured in human, dog, and mouse whole blood; from tissue; host or cells: human whole blood
As to the kind of experiment: Whole blood oxygen affinity assay (Hemox analyzer), human blood. The following applies: 1 mM compound, 1 hour at 25 C, relative to DMSO. The text has this: Whole Blood Oxygen Affinity Assay
Oxygen affinity is a marker of the ability of Hb to bind and release oxygen in solution. It can be determined in whole blood by measuring the percentage of oxygenated and deoxygenated Hb present at a given oxygen concentration. Oxygen affinity is expressed as the p50, the partial pressure of oxygen at which 50% of the Hb in solution has oxygen bound, or the p20, the partial pressure of oxygen at which 20% of the Hb in solution has oxygen bound.
To determine the effects of compounds of the invention on oxygen affinity the p50 and p20 were measured in human, dog, and mouse whole blood using a Hemeox Analyzer (TCS Scientific). The blood was spiked with a compound of the invention to a concentration of 1 mM and incubated for 1 hour at 25 C with constant rotation. A concentration of 1 mM of compound was selected to approximate 20% hemoglobin occupancy in whole blood. Controls with the same concentration of DMSO, but no compound were incubated in the same way at the same time. Following incubation, samples were immediately assayed for oxygen affinity using the Hemox analyzer. Fifty μL of blood sample was diluted into 5 mL of hemox buffer (TCS Scientific), which had been pre-incubated to 37 C. Following dilution, samples were loaded into the analysis chamber, and fully oxygenated using compressed air. Once samples had reached an pO2 of >150 torr, the measurement was initiated by switching to N2, and the percent oxyhemoglobin as a function of partial pressure was recorded. The p20 and p50 of each sample were recorded from the instrument readout. Data are reported as the percent (%) change relative to DMSO according to the following calculations: […]

In turn, `C[C@H](Oc1cc2cc(F)ccc2nc1N)c1nc(O)ccc1-n1cccn1` [Example 58, 6-{(1S)-1-[(2-amino-6-fluoroquinolin-3-yl)oxy]ethyl}-5-(1H-pyrazol-1-yl)pyridin-2-ol] yielded a Kd in assay [1] of 34 nM. This compound also showed an IC50 against HbS of 4800 nM. Also, on Hb in human whole blood, the “Reduction in p20 (%) Human” value is 24 ± 19% and the “Reduction in p50 (%) Human” value was determined as 12 ± 9%.

`C[C@H](Oc1cc2cc(F)cc(F)c2nc1N)c1cc(C(=O)O)ccc1-n1cccn1` [Example 21, 3-{(1S)-1-[(2-amino-6,8-difluoroquinolin-3-yl)oxy]ethyl}-4-(1H-pyrazol-1-yl)benzoic Acid]: in assay [1], binding was characterised by a dissociation constant (Kd) of 37 nM. Besides, the IC50 against HbS came to 4620 nM. Also, at Hb in human whole blood, the “Reduction in p20 (%) Human” value worked out at 25 ± 9% and the “Reduction in p50 (%) Human” value is recorded as 14 ± 10%.

Usually Kd stands for the constant that tells how readily two partners part at equilibrium. The IC50 is the concentration that gives 50% inhibition. High values mean weaker potency, low ones greater potency.

Source of the values: patent US11014908B2, “Chemical compounds” (Pfizer Inc., priority 2018, dated 2021).
